The values that follow come from patent US20240082282A1 (priority 2020, published 2024).

One may read the Kd as a measure of binding affinity in units of concentration. The IC50 is the midpoint of a concentration-inhibition curve. A higher IC50 goes with lower potency.

In data set [1] the test system is Borreliella burgdorferi N40. As to conditions: for MIC: Borreliella burgdorferi, N40, read-out: Minimum inhibitory concentration (MIC).
In data set [2] the test system is Borrelia turcica DSM 16138. Particulars: for MIC: Borrelia turcica.
Data set [3] has as its system Borreliella burgdorferi 297. As to conditions: for MIC: Borreliella burgdorferi, 297, read-out: Minimum inhibitory concentration (MIC).
For data set [4], the system named is Brevinema andersonii ATCC 43811. Particulars: for MIC: Brevinema andersonii, ATCC43811, read-out: Minimum inhibitory concentration (MIC).
Data set [5] concerns Borrelia burgdorferi BbP1286. In words: microbe, parasite or virus in culture. Particulars: Borreliella burgdorferi, BBP1286, read-out: Minimum inhibitory concentration (MIC).
Data set [6] deals with Bacteroides cellulosilyticus KLE 2342. Format: cell-based. Particulars: Bacteroides cellulosilyticus KLE 2342, anaerobic, stool isolate; for MIC: KLE2342, read-out: Minimum inhibitory concentration (MIC).
Data set [7] deals with Enterococcus faecalis KLE 2341. Format: cell-based.
In data set [8] the test system is Bacteroides ovatus KLE 2306. Format: cell-based. As to conditions: Bacteroides ovatus KLE 2306, anaerobic, stool isolate; for MIC: KLE2306, read-out: Minimum inhibitory concentration (MIC).
For data set [9], the system named is Bacteroides xylanisolvens KLE 2305. Format: cell-based. As to conditions: Bacteroides xylanisolvens KLE 2305, anaerobic, stool isolate; for MIC: KLE2305, read-out: Minimum inhibitory concentration (MIC).
In data set [10] the test system is Salmonella typhimurium LT2 ATCC 19585. Format: cell-based.
Data set [11] relates to E. coli ΔtolC-Pore (no efflux, hyperporinated). Nature of the data set: MIC of E. coli mutant strains.
A further data set has as its system B. burgdorferi N40. Nature of the data set: Bait experiment in infected mice. Format: in vivo, C3H mice. As to conditions: for B. burgdorferi culture (% positive) / Mean # of B. burgdorferi/10 mg of skin tissue (qPCR): bait once a day for 5 days; for Culture positive (%): C3H, bait, 5 days, whole ear culture. The procedure: Mice were infected with B. burgdorferi.
To prepare the mouse bait, 2 g of Bait formulation 3 (Food source), 0.5 g freshly ground peanut butter (Whole foods), 35 μl of green food coloring mix (Whole foods) were added into a 60 mm Petri dish. Boiling water (4 mL) was added and mixed with a spatula. The mixture was then dispensed into wells of a 96 well plate with a spatula such that about ⅔rd of the well was full. Antibiotics or vehicle were added at appropriate volume and mixed with a pipette tip. Added volume was kept below 60 μL per well. The bait was allowed to air dry/solidify for a few hours and the prepared baits were stored at 4° C. until use.
To ensure that the bait would be consumed, mice were housed individually with their mouse chow withheld during treatment. The doses used in mice were matched to the pharmacokinetic profile of humans given ceftriaxone 1 g every 12 hours (Sai Life Sciences Ltd, India) and doxycycline 100 mg every 12 hours.
Skin was used for liquid culture, and RNA extraction. All other tissues were used for RNA extraction. The growth of B. burgdorferi in 10 day liquid cultures was detected by dark field microscopy with a 100× objective.
In general terms: Real-time PCR tracks product formation cycle by cycle.

Data set [12] concerns Borrelia burgdorferi (B31, N40, 297). Format: cell-based.
Another data set relates to E. coli ribosomes. Nature of the data set: Toeprinting / in vitro translation, affinity to ribosome. Format: biochemical.
Another data set relates to B. burgdorferi. Nature of the data set: Efficacy of hygromycin A in Peromyscus mice. Format: in vivo. As to conditions: Peromyscus leucopus, subcutaneous, twice a day, 5 days. The source says:
Mice were sacrificed on Day 11 and the heart, ankle, and ear were taken for culture. Cultures were monitored by darkfield microscopy for 4 weeks or until positive.

In data set [13] the test system is Brachyspira (formerly Treponema) hyodysenteriae. Particulars: report of a group from Japan; cited from earlier work.
A further data set concerns E. coli WT BW25113. Nature of the data set: MIC of E. coli mutant strains.
The subject of data set [14] is Alkalispirochaeta americana DSM 14872.
In data set [15] the test system is Brachyspira (formerly Treponema) hyodysenteriae. Particulars: report of a group from Japan; cited from earlier work. This is another data set of the same source.
Data set [16] relates to B. burgdorferi overexpressing bmpD (Bb1286+pJSB275m_bmpD). In words: MIC of B. burgdorferi overexpressing bmpD. As to conditions: for Change of MIC on overexpression of bmpD in B. burgdorferi: normalized to wild-type B. burgdorferi, IPTG-independent. Format: cell-based.
In data set [17] the test system is FaDu, HepG2 and HEK293-RFP cells. As to conditions: a number of human cell lines.
For a further data set, the system named is Treponema pallidum. In words: MIC, T. pallidum in co-culture with rabbit Sf1Ep cells.
Data set [18] relates to E. coli ΔtolC (no efflux). Nature of the data set: MIC of E. coli mutant strains.
In the next data set the test system is HepG2. Particulars: HepG2, alamar blue, 72 hours.
For data set [19], the system named is E. coli ΔTolC+pBAD30 bmpD. In words: MIC of E. coli overexpressing bmpD. Particulars: arabinose induced.
Data set [20] relates to E. coli WT-Pore (hyperporinated). Nature of the data set: MIC of E. coli mutant strains.
[21] abbreviates: DSM16138, read-out: Minimum inhibitory concentration (MIC).
Where [22] appears, read: KLE2341, Enterococcus faecalis KLE 2341, anaerobic, stool isolate, read-out: Minimum inhibitory concentration (MIC).
[23] abbreviates: Borreliella garinii, read-out: Minimum inhibitory concentration (MIC).
Setting [24] is: Borreliella afzelii, read-out: Minimum inhibitory concentration (MIC).
Setting [25] is: Salmonella enterica, Salmonella typhimurium LT2 ATCC 19585, anaerobic, read-out: Minimum inhibitory concentration (MIC).

Values after ≈ are worked out from the molar mass of the structure shown. Where two headings read alike, the source gives them in different places.

For `CC1(C)S[C@@H]2[C@H](NC(=O)[C@H](N)c3ccc(O)cc3)C(=O)N2[C@H]1C(=O)O` [Amoxicillin], the MIC in data set [1] was 0.12 µg/mL (≈ 0.328 µM); in [2] (setting [21]) it was 0.25 µg/mL (≈ 0.684 µM); in data set [3] it was 0.25 µg/mL (≈ 0.684 µM); in data set [4], 0.12 µg/mL (≈ 0.328 µM); in data set [5] it was 0.12 µg/mL (≈ 0.328 µM); in data set [6], 128 µg/mL (≈ 350 µM). Also, the MIC was 0.5 µg/mL (≈ 1.37 µM) in [7] (setting [22]); 0.5 µg/mL (≈ 1.37 µM) in data set [8]; 0.12 µg/mL (≈ 0.328 µM) in the data set with Borrelia garinii (setting [23]); 32 µg/mL (≈ 87.6 µM) in data set [9]; 0.01 µg/mL (≈ 0.0274 µM) in the data set with Borrelia afzelii (setting [24]); 16 µg/mL (≈ 43.8 µM) in data set [10] (setting [25]).

In the case of Hygromycin A, the MIC in data set [11] was 16 µg/mL; in [2], 0.5 µg; in [12] (B. burgdorferi), 0.25 µg/mL; in data set [12] (Borrelia burgdorferi (B31, N40, 297)) it was 0.25 µg; in data set [12] (wild type B. burgdorferi (FIG. 7B)), 0.25 µg/mL; in [7] (Enterococcus faecalis), >128 µg. In addition, the MIC in the data set on E. coli WT BW25113 is 512 µg/mL; in data set [14] (Alkalispirochaeta americana), 0.5 µg; in data set [16] (BmpD overexpressing B. burgdorferi (FIG. 7B)), 0.0625 µg/mL; against Escherichia coli Nissle it was >128 µg; with Borrelia garinii (B. garinii) it was 0.25 µg/mL; with Borrelia garinii (Borrelia garinii), 0.25 µg. In addition, the MIC with Treponema pallidum was 0.03 µg; against Treponema pallidum (monitoring spirochetes in co-culture with rabbit cells) it was 0.03 µg/mL; in data set [18] (E. coli ΔtolC, no efflux), 16 µg/mL; in the data set with Borrelia afzelii (B. afzelii) it was 0.25 µg/mL; against Borrelia afzelii (Borrelia afzelii) it was 0.25 µg; in [10] (Salmonella typhimurium) it was >128 µg. Moreover, the MIC in [20] turned out to be 512 µg/mL. Also, the “Minimum inhibitory concentration (MIC)” value is 0.25 µg/mL in data set [1] (Borreliella burgdorferi N40, microaerophilic); 0.5 µg/mL in [2] (Borrelia turcica DSM 16138, microaerophilic); 0.25 µg/mL in data set [3] (Borreliella burgdorferi 297, microaerophilic); 2 µg/mL in data set [4] (Brevinema andersonii ATCC 43811, microaerophilic); 8 µg/mL in data set [6]; >128 µg/mL in data set [7] (Enterococcus faecalis KLE 2341, anaerobic, stool isolate). Besides, the “Minimum inhibitory concentration (MIC)” value in data set [8] was 64 µg/mL; in [14] (Alkalispirochaeta americana DSM 14872, anaerobic), 0.5 µg/mL; with Borrelia garinii (Borreliella garinii, microaerophilic), 0.25 µg/mL; in the data set on Treponema pallidum, 0.03 µg/mL; in data set [9], >128 µg/mL; with Borrelia afzelii (Borreliella afzelii, microaerophilic), 0.25 µg/mL. For the same compound, the “Minimum inhibitory concentration (MIC)” value in data set [10] (Salmonella typhimurium LT2 ATCC 19585, anaerobic) is >128 µg/mL. The “B. burgdorferi culture (% positive)” value in the data set with B. burgdorferi N40 (200 mg/kg) turned out to be 0%. In addition, the “Mean # of B. burgdorferi/10 mg of skin tissue (qPCR)” value in the data set on B. burgdorferi N40 (200 mg/kg) is <1 B. burgdorferi/10 mg of skin t. In addition, the “Culture positive (%)” value in the data set with B. burgdorferi N40 (daily dose 100 mg/kg/day) is recorded as 0%; with B. burgdorferi (total daily dose 100 mg/kg/day), 100%; with B. burgdorferi (total daily dose 200 mg/kg/day), 0%. In addition, the “Clearance of B. burgdorferi infection by consuming baits” value in the data set on B. burgdorferi N40 (baits, FIG. 10) is on record as “efficiently cleared”. Besides, the Kd in the data set with E. coli ribosomes (E. coli ribosomes, inferred from in vitro translation arrest, read-out: Kd of binding to the ribosome) is < 10 nM. The “Arrest of in vitro translation of model ORFs” value in the data set with E. coli ribosomes (lowest concentration tested, 0.6 μM) is “complete arrest of translation”. Further, in data set [13], the “Activity against Brachyspira hyodysenteriae” value is “good activity”. The “Treatment of pig dysentery” value in data set [15] is “showed efficacy”. Also, the “Change of MIC on overexpression of bmpD in B. burgdorferi” value in data set [16] is given as “four-fold reduction”. Further, in data set [17], the “EC50 (cytotoxicity)” value was > 512. In data set [18] (adenosine 2.5-2500 μM, concentration-dependent), the “Decrease in MIC on addition of adenosine to E. coli” value is “up to 8 fold”. In addition, in the data set on HepG2, the IC50 is >512 µg/mL. Moreover, the “Reduction of E. coli MIC on inducing expression of BmpD” value in data set [19] is listed as 8 fold.

`C[C@H]1c2cccc(O)c2C(=O)C2=C(O)[C@]3(O)C(=O)C(C(N)=O)=C(O)[C@@H](N(C)C)[C@@H]3[C@@H](O)[C@@H]21` [Doxycycline]: the MIC came to 0.25 µg/mL (≈ 0.563 µM) in data set [1]; 0.25 µg/mL (≈ 0.563 µM) in data set [2] (setting [21]); 0.25 µg/mL (≈ 0.563 µM) in data set [3]; 0.12 µg/mL (≈ 0.27 µM) in [4]; 0.25 µg/mL (≈ 0.563 µM) in data set [5]; 2 µg/mL (≈ 4.5 µM) in data set [6]. Besides, the MIC is 0.5 µg/mL (≈ 1.13 µM) in data set [7] (setting [22]); 0.01 µg/mL (≈ 0.0225 µM) in [8]; 0.12 µg/mL (≈ 0.27 µM) in the data set on Borrelia garinii (setting [23]); 0.5 µg/mL (≈ 1.13 µM) in [9]; 0.12 µg/mL (≈ 0.27 µM) in the data set with Borrelia afzelii (setting [24]); 8 µg/mL (≈ 18 µM) in data set [10] (setting [25]). Moreover, in the data set with B. burgdorferi N40 (100 mg/kg), the “B. burgdorferi culture (% positive)” value is 0%. Also, the “Mean # of B. burgdorferi/10 mg of skin tissue (qPCR)” value in the data set with B. burgdorferi N40 (100 mg/kg) was <1 B. burgdorferi/10 mg of skin t. In addition, the “Culture positive (%)” value with B. burgdorferi N40 (daily dose 200 mg/kg/day) worked out at 0%.

Take `CO/N=C(\C(=O)N[C@@H]1C(=O)N2C(C(=O)O)=C(CSc3nc(=O)c(=O)[nH]n3C)CS[C@H]12)c1csc(N)n1` [Ceftriaxone]: the MIC was determined as 0.01 µg/mL (≈ 0.018 µM) in data set [1]; 0.06 µg/mL (≈ 0.108 µM) in data set [2] (setting [21]); 0.01 µg/mL (≈ 0.018 µM) in data set [3]; 0.01 µg/mL (≈ 0.018 µM) in data set [4]; 0.01 µg/mL (≈ 0.018 µM) in [5]; 128 µg/mL (≈ 231 µM) in data set [6]. Further, the MIC in data set [7] (setting [22]) is > 128 µg/mL; in [8] it was 0.02 µg/mL (≈ 0.0361 µM); in the data set on Borrelia garinii (setting [23]) it was 0.01 µg/mL (≈ 0.018 µM); in data set [9], 64 µg/mL (≈ 115 µM); in the data set with Borrelia afzelii (setting [24]), < 0.01 µg/mL; in data set [10] (setting [25]), 0.25 µg/mL (≈ 0.451 µM). Also, the “Change of MIC on overexpression of bmpD in B. burgdorferi” value in [16] is “no effect”; in data set [16] (listed as ceftriaxone), “remained unchanged”.
